Results from patent US20170190671A1, “BIS(ARYL)CATECHOL DERIVATIVES AS HERBICIDES” (E I DU PONT DE NEMOURS AND COMPANY, priority 2014, published 2017).

What was measured:
Details in all cases: scale 0 to 100
[1] = tested on: velvetleaf (Abutilon theophrasti); experiment: Test E preemergence; type: in vivo
Summary of the method: (§1)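 Test chemicals, formulated in a non-phytotoxic solvent with surfactant, are applied to silt loam soil after sowing or sprayed over young plants (1–4 leaves) in potting medium. Plants are then kept in a greenhouse for 14 to 21 days and scored 0–100 for control.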

[2] = tested on: giant foxtail (Setaria faberii); experiment: Test E preemergence; type: in vivo
Summary of the method: as §1

soybean (Glycine max) [3] = experiment: Test E preemergence; type: in vivo
Summary of the method: as §1

corn (Zea mays) [4] = experiment: Test E preemergence; type: in vivo
Summary of the method: as §1

wild oat (Avenafatua) = experiment: Test D postemergence; type: in vivo, Avena fatua
Description: Seeds of plant species selected from bluegrass (annual bluegrass, Poa annua), blackgrass (Alopecurus myosuroides), canarygrass (Phalaris minor), chickweed (common chickweed, Stellaria media), cutleaf geranium (Geranium dissectum), galium (catchweed bedstraw, Galium aparine), downy bromegrass (Bromus tectorum), field poppy (Papaver rhoeas), field violet (Viola arvensis), green foxtail (Setaria viridis), deadnettle (henbit deadnettle, Lamium amplexicaule), Italian ryegrass (Lolium multiflorum), kochia (Kochia scoparia), lambsquarters (Chenopodium album), oilseed rape (Brassica napus), pigweed (Amaranthus retroflexus), chamomile (scentless chamomile, Matricaria inodora), Russian thistle (Salsola kali), speedwell (bird's-eye speedwell, Veronica persica), spring barley (Hordeum vulgare), spring wheat (Triticum aestivum), wild buckwheat (Polygonum convolvulus), wild mustard (Sinapis arvensis), wild oat (Avenafatua), wild radish (Raphanus raphanistrum), windgrass (Apera spica-venti), winter barley (Hordeum vulgare), and winter wheat (Triticum aestivum) were planted into a silt loam soil and treated preemergence with test chemicals formulated in a non-phytotoxic solvent mixture which included a surfactant.
At the same time, these species were planted in pots containing Redi-Earth® planting medium (Scotts Company, 14111 Scottslawn Road, Marysville, Ohio 43041) comprising spaghnum peat moss, vermiculite, wetting agent and starter nutrients and treated with postemergence applications of the test chemicals formulated in the same manner. Plants ranged in height from 2 to 18 cm (1- to 4-leaf stage). Treated plants and controls were maintained in a controlled growth environment for 14 to 21 days after which time all species were compared to controls and visually evaluated. Plant response ratings, summarized in Table D, are based on a scale of 0 to 100 where 0 is no effect and 100 is complete control. A dash (-) response means no test result.

[5] = tested on: fall panicum (Panicum dichotomiflorum); experiment: Test E postemergence; type: in vivo
Description: (§2) Seeds of plant species selected from corn (Zea mays), soybean (Glycine max), velvetleaf (Abutilon theophrasti), cocklebur (common cocklebur, Xanthium strumarium), lambsquarters (Chenopodium album), wild poinsettia (Euphorbia heterophylla), palmer pigweed (Amaranthus palmeri), waterhemp (common waterhemp, Amaranthus rudis), surinam grass (Brachiaria decumbens), large (Lg) crabgrass (Digitaria sanguinalis), Brazilian crabgrass (Digitaria horizontalis), fall panicum (Panicum dichotomiflorum), giant foxtail (Setaria faberii), green foxtail (Setaria viridis), goosegrass (Eleusine indica), johnsongrass (Sorghum halepense), ragweed (common ragweed, Ambrosia elatior), barnyardgrass (Echinochloa crus-galli), sandbur (southern sandbur, Cenchrus echinatus), arrowleaf sida (Sida rhombifolia), Italian ryegrass (Lolium multiflorum), dayflower (Virginia (VA) dayflower, Commelina virginica), field bindweed (Convolvulus arvensis), morningglory (Ipomoea coccinea), nightshade (eastern black nightshade, Solanum ptycanthum), kochia (Kochia scoparia), yellow nutsedge (Cyperus esculentus), horseweed (Conyza canadensis), and hairy beggarticks (Bidens pilosa), were planted into a silt loam soil and treated preemergence with test chemicals formulated in a non-phytotoxic solvent mixture which included a surfactant.
(§3) At the same time, plants from these crop and weed species and also waterhemp_RES1, (ALS & Triazine resistant common waterhemp, Amaranthus rudis), and waterhemp_RES2, (ALS & HPPD resistant common waterhemp, Amaranthus rudis) were planted in pots containing Redi-Earth® planting medium (Scotts Company, 14111 Scottslawn Road, Marysville, Ohio 43041) comprising spaghnum peat moss, vermiculite, wetting agent and starter nutrients were treated with postemergence applications of test chemicals formulated in the same manner. Plants ranged in height from 2 to 18 cm for postemergence treatments (1- to 4-leaf stage). Treated plants and controls were maintained in a greenhouse for 14 to 21 days, after which time all species were compared to controls and visually evaluated. Plant response ratings, summarized in Table E, are based on a scale of 0 to 100 where 0 is no effect and 100 is complete control. A dash (-) response means no test result.

[6] = tested on: Brazilian crabgrass (Digitaria horizontalis); experiment: Test E postemergence; type: in vivo
Description: as §2, §3

kochia (Kochia scoparia) = experiment: Test E postemergence; type: in vivo
Description: as §2, §3

[7] = tested on: arrowleaf sida (Sida rhombifolia); experiment: Test E postemergence; type: in vivo
Description: as §2, §3

[8] = tested on: palmer pigweed (Amaranthus palmeri); experiment: Test E postemergence; type: in vivo
Description: as §2, §3

soybean (Glycine max) [9] = experiment: Test E postemergence; type: in vivo
Description: as §2, §3

corn (Zea mays) [10] = experiment: Test E postemergence; type: in vivo
Description: as §2, §3

[11] = tested on: waterhemp (common waterhemp, Amaranthus rudis); experiment: Test E postemergence; type: in vivo
Description: as §2, §3

[12] = tested on: waterhemp_RES2 (ALS & HPPD resistant common waterhemp, Amaranthus rudis); experiment: Test E postemergence; type: in vivo
Description: as §2, §3

[13] = tested on: hairy beggarticks (Bidens pilosa); experiment: Test E postemergence; type: in vivo
Description: as §2, §3

Fc1cccc(Oc2ncc(C(F)(F)F)cn2)c1Oc1ncc(Cl)cn1 [Compound 42, 5-chloro-2-[2-fluoro-6-[[5-(trifluoromethyl)-2-pyrimidinyl]oxy]phenoxy]pyrimidine]
Plant response rating, Velvetleaf ([1]; 16 g ai/ha): 75
Plant response rating, Velvetleaf ([1]; 31 g ai/ha): 80
Plant response rating, Velvetleaf ([1]; 62 g ai/ha): 100
Plant response rating, Velvetleaf ([1]; 125 g ai/ha): 100
Plant response rating, Foxtail, Giant ([2]; 16 g ai/ha): 50
Plant response rating, Foxtail, Giant ([2]; 31 g ai/ha): 80
Plant response rating, Foxtail, Giant ([2]; 62 g ai/ha): 100
Plant response rating, Foxtail, Giant ([2]; 125 g ai/ha): 100
Plant response rating, Soybean (soybean (Glycine max) [3]; 16 g ai/ha): 0
Plant response rating, Soybean (soybean (Glycine max) [3]; 31 g ai/ha): 35
Plant response rating, Soybean (soybean (Glycine max) [3]; 62 g ai/ha): 35
Plant response rating, Soybean (soybean (Glycine max) [3]; 125 g ai/ha): 100
Plant response rating, Corn (corn (Zea mays) [4]; 16 g ai/ha): 0
Plant response rating, Corn (corn (Zea mays) [4]; 31 g ai/ha): 0
Plant response rating, Corn (corn (Zea mays) [4]; 62 g ai/ha): 35
Plant response rating, Corn (corn (Zea mays) [4]; 125 g ai/ha): 65
Plant response rating, Oat, Wild (wild oat (Avenafatua); 16 g ai/ha): 25
Plant response rating, Oat, Wild (wild oat (Avenafatua); 31 g ai/ha): 45
Plant response rating, Oat, Wild (wild oat (Avenafatua); 62 g ai/ha): 40
Plant response rating, Oat, Wild (wild oat (Avenafatua); 125 g ai/ha): 70
Plant response rating, Panicum, Fall ([5]; 16 g ai/ha): 10
Plant response rating, Panicum, Fall ([5]; 31 g ai/ha): 15
Plant response rating, Panicum, Fall ([5]; 62 g ai/ha): 20
Plant response rating, Panicum, Fall ([5]; 125 g ai/ha): 30
Plant response rating, Crabgrass, Brazil ([6]; 16 g ai/ha): 10
Plant response rating, Crabgrass, Brazil ([6]; 31 g ai/ha): 10
Plant response rating, Crabgrass, Brazil ([6]; 62 g ai/ha): 20
Plant response rating, Crabgrass, Brazil ([6]; 125 g ai/ha): 30
Plant response rating, Kochia (kochia (Kochia scoparia); 16 g ai/ha): 70
Plant response rating, Kochia (kochia (Kochia scoparia); 31 g ai/ha): 80
Plant response rating, Kochia (kochia (Kochia scoparia); 62 g ai/ha): 95
Plant response rating, Kochia (kochia (Kochia scoparia); 125 g ai/ha): 95
Plant response rating, Arrowleaf Sida ([7]; 16 g ai/ha): 75
Plant response rating, Arrowleaf Sida ([7]; 31 g ai/ha): 85
Plant response rating, Arrowleaf Sida ([7]; 62 g ai/ha): 95
Plant response rating, Arrowleaf Sida ([7]; 125 g ai/ha): 98
Plant response rating, Pigweed, Palmer ([8]; 16 g ai/ha): 80
Plant response rating, Pigweed, Palmer ([8]; 31 g ai/ha): 85
Plant response rating, Pigweed, Palmer ([8]; 62 g ai/ha): 95
Plant response rating, Pigweed, Palmer ([8]; 125 g ai/ha): 100
Plant response rating, Soybean (soybean (Glycine max) [9]; 16 g ai/ha): 50
Plant response rating, Soybean (soybean (Glycine max) [9]; 31 g ai/ha): 60
Plant response rating, Soybean (soybean (Glycine max) [9]; 62 g ai/ha): 95
Plant response rating, Soybean (soybean (Glycine max) [9]; 125 g ai/ha): 95
Plant response rating, Corn (corn (Zea mays) [10]; 16 g ai/ha): 5
Plant response rating, Corn (corn (Zea mays) [10]; 31 g ai/ha): 10
Plant response rating, Corn (corn (Zea mays) [10]; 62 g ai/ha): 10
Plant response rating, Corn (corn (Zea mays) [10]; 125 g ai/ha): 15
Plant response rating, Waterhemp ([11]; 16 g ai/ha): 75
Plant response rating, Waterhemp ([11]; 31 g ai/ha): 85
Plant response rating, Waterhemp ([11]; 62 g ai/ha): 90
Plant response rating, Waterhemp ([11]; 125 g ai/ha): 95
Plant response rating, Waterhemp_RES2 ([12]; 16 g ai/ha): 50
Plant response rating, Waterhemp_RES2 ([12]; 31 g ai/ha): 65
Plant response rating, Waterhemp_RES2 ([12]; 62 g ai/ha): 85
Plant response rating, Waterhemp_RES2 ([12]; 125 g ai/ha): 95
Plant response rating, Beggarticks ([13]; 16 g ai/ha): 50
Plant response rating, Beggarticks ([13]; 31 g ai/ha): 60
Plant response rating, Beggarticks ([13]; 62 g ai/ha): 60
Plant response rating, Beggarticks ([13]; 125 g ai/ha): 70
